Assay results from article PMC11111404, “Discovery of potent small-molecule inhibitors of lipoprotein(a) formation” (Nature, 2024).
Where “and” joins values, the source holds several entries; their conditions need not be identical. Equal values may be shown once.

Columns and labels:
Lp(a) = Lp(a) levels in cynomolgus monkeys; type: in vivo, cynomolgus monkey (Macaca fascicularis); set-up: Lp(a): unit not given here; conditions: for pCFB (Lp(a) pct_chng_from_baseline) / Lp(a): cynomolgus monkey, individual animals
Protocol: Female or male Chinese Macaca fascicularis cynomolgus monkeys (as described in the figure legends) of unspecified ages with body weight ranging from 2.0 kg to 5.0 kg were housed in cages with a standard light cycle (12-h light, 12-h dark) at room temperature (20–26 °C); the relative humidity ranged from 30% to 70%. Monkeys were given fruits, vegetables or dietary enrichment as a form of environmental enrichment, and various cage enrichment devices. Purina Lab diet 5048C was provided BID and individual monkeys were identified by cage card. The monkeys were randomized to treatment groups by body weight and baseline plasma Lp(a) concentration, as determined by a commercially available Randox assay (Randox LP2757), using a BRAT for the study. In an example cynomolgus monkey study in which 39 monkeys were prescreened for baseline Lp(a) levels, the average Lp(a) level was 350 ± 57 µg ml^−1 (range 53–1,667 µg ml^−1). Monkeys were dosed orally with vehicle (purified water) or compounds QD or BID for 14 days, at dose levels and frequencies as previously described for each compound. Plasma samples were collected on days before dosing to establish baseline Lp(a) and after the morning dose during the study. Lp(a) levels were measured by an investigator who was blinded to group allocation using the Randox assay, and were quantified relative to the calibrator series (Randox LP3404). Data were analysed in GraphPad Prism v.9.5.1. The Lp(a) percentage change from before dosing in non-human primates was analysed by repeated measures ANOVA in SAS v.9.4 (SAS). At each time point, the Lp(a) percentage change for each treated group was compared with vehicle by the Bonferroni method.

plasmin activity = biological target: T1, plasmin activity (Rattus norvegicus, UniProt Q01177); test: Rat plasma plasmin (plasminogen) activity ex vivo after oral dosing; type: in vivo; conditions: rat plasma, individual animal; for PLG activity (Vmax), % change from Vehicle: vehicle mean 431.7
T1 construct: Plasma samples were collected via the abdominal aorta; from tissue; host or cells: Citrated plasma of orally dosed male Sprague Dawley rats
Protocol: Male Sprague Dawley rats (Charles River, average body weight 310 g, aged eight to nine weeks old) were housed in cages with a standard light cycle (12-h light, 12-h dark), at room temperature (22 ± 4 °C), with a relative humidity of 30–70%. Rats were identified by numbers on the cage cards. After arrival, rats were fed on a normal diet (Harlan Teklad diet 2014) and randomized to treatment groups (n = 5 per group) by baseline plasma plasminogen concentration and activity using a BRAT. LSN3441732 and LY3473329 were administered QD orally at three dose levels (3.7, 12.3 and 37 mg kg^−1; 3.2, 10.5 and 31.6 mg kg^−1 per dose, respectively) or vehicle (10 ml kg^−1, 1% HEC, 0.25% Tween-80, Antifoam) for four days. Terminal blood was drawn under general anaesthesia 24 h after the day-4 oral dose. Plasma samples were collected via the abdominal aorta into a premeasured anticoagulant BD Vacutainer used for blood collection (2.7 ml, buffered sodium citrate). The liver was flash frozen in liquid nitrogen. To measure plasminogen activity, 100 µl plasma per well was added to a 96-well plate (Corning) and the following were added to the indicated concentrations: 7.5 mM CaCl2 and 117 mM NaCl. Wells were mixed and warmed to 37 °C. Urokinase (Millipore) was added at 125 U per well and the plate was incubated at 37 °C for 4 min. The plasminogen substrate Chromogenix S-2251 (DiaPharma) was added to a concentration of 3.3 mM. The mixture was added and the plate was sealed and placed in a prewarmed plate reader, shaken, and the absorbance read every 30 s for 2 h. The maximum slope for each curve was determined and the percentage inhibition was calculated relative to untreated controls. Plasminogen protein was measured using ELISA kits for rat (Abcam ab157740) according to the manufacturer’s instructions. Plasminogen activity (percentage) and mass (µg ml^−1) in rat were analysed by ANOVA in JMP 16.1.0. The percentage reduction of plasminogen activity and mass for each treated group was compared with vehicle by Dunnett’s method.

[1] = Pharmacokinetics in monkey plasma after oral dosing; type: in vivo; conditions: Chinese cynomolgus
[2] = 3473329 dose 3.2 mpk, 3.2 mg/kg
[3] = 3473329 dose 10.5 mpk, 10.5 mg/kg
[4] = 3473329 dose 31.6 mpk, 31.6 mg/kg

T1 sequence (Q01177 20-812 limits assumed): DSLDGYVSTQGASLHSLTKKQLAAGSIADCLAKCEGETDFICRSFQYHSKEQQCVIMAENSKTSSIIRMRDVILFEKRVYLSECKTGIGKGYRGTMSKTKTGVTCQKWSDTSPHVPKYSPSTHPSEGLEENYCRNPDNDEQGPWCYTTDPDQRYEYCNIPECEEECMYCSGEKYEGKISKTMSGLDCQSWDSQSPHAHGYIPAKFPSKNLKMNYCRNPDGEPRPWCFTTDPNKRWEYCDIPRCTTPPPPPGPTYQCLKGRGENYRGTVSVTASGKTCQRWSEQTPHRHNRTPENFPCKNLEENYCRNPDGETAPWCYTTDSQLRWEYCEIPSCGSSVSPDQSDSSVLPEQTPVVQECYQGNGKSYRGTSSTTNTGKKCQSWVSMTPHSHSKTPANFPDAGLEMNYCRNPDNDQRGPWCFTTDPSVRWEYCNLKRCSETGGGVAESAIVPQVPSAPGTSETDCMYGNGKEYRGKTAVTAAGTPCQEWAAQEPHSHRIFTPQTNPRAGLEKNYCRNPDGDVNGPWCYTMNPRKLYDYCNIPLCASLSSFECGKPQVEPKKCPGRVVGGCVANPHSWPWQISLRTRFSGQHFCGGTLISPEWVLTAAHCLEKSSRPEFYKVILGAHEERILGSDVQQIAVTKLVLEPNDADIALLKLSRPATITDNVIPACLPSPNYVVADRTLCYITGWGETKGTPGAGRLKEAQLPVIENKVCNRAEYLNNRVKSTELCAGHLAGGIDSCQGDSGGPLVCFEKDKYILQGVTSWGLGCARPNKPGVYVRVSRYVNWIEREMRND

## O=C(O)[C@@H](Cc1cccc(CN(Cc2cccc(C[C@H](C(=O)O)[C@H]3CCNC3)c2)Cc2cccc(C[C@H](C(=O)O)[C@H]3CCNC3)c2)c1)[C@H]1CCNC1 [LY3473329]
Lp(a); 1mpk, Day 9, 1 mg/kg
  pCFB (Lp(a) pct_chng_from_baseline): -25.7489 and 7.768 and -40.9481 and -41.984 and -4.946 and -25.2635
Lp(a); 1mpk, Day 14, 1 mg/kg
  pCFB (Lp(a) pct_chng_from_baseline): -43.1939 and -2.975 and -53.0914 and -46.914 and -15.7924 and -42.2472
Lp(a); 10mpk group, Day 1, Pre dose (baseline), 10 mg/kg
  Lp(a): 63.144 and 63.676 and 112.151 and 49.481 and 65.725 and 30.09
Lp(a); 10mpk, Day 1, 10 mg/kg
  pCFB (Lp(a) pct_chng_from_baseline): -0.54 and 5.215 and -3.008 and -7.112 and -1.928 and 0.1728
Lp(a); 10mpk, Day 3, 10 mg/kg
  pCFB (Lp(a) pct_chng_from_baseline): -40.1463 and -31.9398 and -31.5575 and -28.9606 and -53.8653 and -27.9495
Lp(a); 10mpk, Day 5, 4hr, 10 mg/kg
  Lp(a): 69.663 and 26.971 and 31.738 and 21.72
Lp(a); 10mpk, Day 5, 10 mg/kg
  pCFB (Lp(a) pct_chng_from_baseline): -39.4923 and -41.2165 and -37.8846 and -45.4922 and -51.7109 and -27.8166
Lp(a); 10mpk, Day 9, 4hr, 10 mg/kg
  Lp(a): 37.879 and 46.471 and 59.699 and 19.275 and 28.08 and 18.466
Lp(a); 10mpk, Day 9, 10 mg/kg
  pCFB (Lp(a) pct_chng_from_baseline): -40.0117 and -27.0196 and -46.7691 and -61.0457 and -57.2765 and -38.6308
Lp(a); 10mpk, Day 14, 4hr, 10 mg/kg
  Lp(a): 27.525 and 31.412 and 53.912 and 14.404 and 16.367 and 13.601
Lp(a); 10mpk, Day 14, 10 mg/kg
  pCFB (Lp(a) pct_chng_from_baseline): -56.4092 and -50.669 and -51.9291 and -70.8898 and -75.0978 and -54.7989
Lp(a); 100mpk group, Day 1, Pre dose (baseline), 100 mg/kg
  Lp(a): 63.503 and 134.003 and 31.483 and 50.567 and 61.834
Lp(a); 100mpk, Day 1, 4hr, 100 mg/kg
  Lp(a): 57.552 and 102.207 and 18.95 and 36.698 and 61.471
Lp(a); 100mpk, Day 1, 100 mg/kg
  pCFB (Lp(a) pct_chng_from_baseline): -39.8088 and -27.427 and -0.5871 and -9.371 and -23.7278
Lp(a); 100mpk, Day 3, 4hr, 100 mg/kg
  Lp(a): 37.977 and 67.885 and 16.507 and 23.074 and 46.465
Lp(a); 100mpk, Day 3, 100 mg/kg
  pCFB (Lp(a) pct_chng_from_baseline): -47.5685 and -54.3695 and -24.8553 and -40.1965 and -49.3407
Lp(a); 100mpk, Day 5, 4hr, 100 mg/kg
  Lp(a): 41.338 and 90.201 and 17.421 and 23.304 and 43.695
Lp(a); 100mpk, Day 5, 100 mg/kg
  pCFB (Lp(a) pct_chng_from_baseline): -32.6873 and -44.6654 and -53.9146 and -29.335 and -34.9039
Lp(a); 100mpk, Day 9, 4hr, 100 mg/kg
  Lp(a): 23.771 and 69.54 and 11.012 and 15.587 and 35.753
Lp(a); 100mpk, Day 9, 100 mg/kg
  pCFB (Lp(a) pct_chng_from_baseline): -48.1056 and -65.0224 and -69.1755 and -42.1791 and -62.5671
Lp(a); 100mpk, Day 14, 4hr, 100 mg/kg
  Lp(a): 22.568 and 43.526 and 4.973 and 14.913 and 14.296
Lp(a); 100mpk, Day 14, 100 mg/kg
  pCFB (Lp(a) pct_chng_from_baseline): -67.5186 and -84.2042 and -70.5084 and -76.88 and -64.4615
Lp(a); cynomolgus monkeys, 100 mg kg^−1 QD
  reduction of median Lp(a) levels compared with baseline: up to 71%
Plasmin activity; [2]
  PLG activity (Vmax), Plasminogen (mean of replicates): 454.0 and 451.6 and 414.5 and 449.4 and 437.1
  PLG activity (Vmax), Replicate 1: 455.671 and 447.416 and 413.515 and 443.630 and 436.745
  PLG activity (Vmax), Replicate 2: 452.252 and 455.835 and 415.508 and 455.110 and 437.378
  PLG activity (Vmax), % change from Vehicle: 5.15% and 4.60% and -3.99% and 4.08% and 1.23%
Plasmin activity; [3]
  PLG activity (Vmax), Plasminogen (mean of replicates): 426.8 and 390.7 and 429.5 and 340.1 and 383.7
  PLG activity (Vmax), Replicate 1: 431.402 and 387.065 and 425.922 and 337.633 and 378.355
  PLG activity (Vmax), Replicate 2: 422.258 and 394.290 and 433.134 and 342.491 and 389.046
  PLG activity (Vmax), % change from Vehicle: -1.14% and -9.51% and -0.51% and -21.24% and -11.13%
Plasmin activity; [4]
  PLG activity (Vmax), Plasminogen (mean of replicates): 357.4 and 336.9 and 317.3 and 381.6 and 333.2
  PLG activity (Vmax), Replicate 1: 356.862 and 337.031 and 314.998 and 380.162 and 336.487
  PLG activity (Vmax), Replicate 2: 357.898 and 336.831 and 319.531 and 383.010 and 329.925
  PLG activity (Vmax), % change from Vehicle: -17.22% and -21.96% and -26.52% and -11.62% and -22.82%
[1]; oral 1 mg/kg, day 15
  Cmax: 911 ± 225 nM
[1]; oral 1 mg/kg, day 15, read-out: AUC(0-96 hr)
  AUC(0-t): 35.8 µM·h
[1]; oral 10 mg/kg, day 15
  Tmax: 30 min
[1]; oral 100 mg/kg, day 15
  Cmax: 4850 nM
